Results: ChEMBL document CHEMBL5120753, “Isolation and biological activity of azocine and azocane alkaloids” (Bioorg Med Chem, 2022)
≈ marks a conversion by molar mass, not a printed value.

Assays:
[1] = system: Mycobacterium tuberculosis; experiment: Antimycobacterial activity against Mycobacterium tuberculosis H37Rv assessed as inhibition of bacterial growth; type: functional
[2] = system: L1210; experiment: Cytotoxicity against mouse L1210 cells assessed as cell growth inhibition; type: functional, cell-based
[3] = target: Cyclin-dependent kinase 4 (Homo sapiens, UniProt P11802); experiment: Inhibition of CDK4 (unknown origin)
[4] = system: Corynebacterium xerosis; experiment: Antibacterial activity against Corynebacterium xerosis assessed as bacterial growth inhibition; type: functional
[5] = system: Trichophyton mentagrophytes; experiment: […] activity against Trichophyton mentagrophytes assessed as […]; type: functional
[6] = system: Mycobacterium tuberculosis; experiment: Antimycobacterial activity against Mycobacterium tuberculosis H37Rv ATCC 27294 assessed as inhibition of bacterial growth by microplate alamar blue assay; type: functional
[7] = system: SAOS-2; experiment: Cytotoxicity against human SAOS-2 cells assessed as cell growth inhibition incubated for 48 hrs by microplate reader based analysis; type: functional; settings: SAOS-2, 48 h
[8] = system: MG-63; experiment: Cytotoxicity against human MG-63 cells assessed as cell growth inhibition incubated for 48 hrs by microplate reader based analysis; type: functional; settings: MG-63, 48 h
[9] = system: U2OS; experiment: Cytotoxicity against human U2OS cells assessed as cell growth inhibition incubated for 48 hrs by microplate reader based analysis; type: functional
[10] = Cytotoxicity against human SOSP-9607 cells assessed as cell growth inhibition incubated for 48 hrs by microplate reader based analysis; type: functional; settings: SOSP-9607, 48 h
[11] = Toxicity in iv dosed Swiss-Webster mouse assessed as lethal dose at 7.5 ml/kg, iv administered through tail vein injection by Litchfield-Wilcoxon method; type: organism-based; settings: in vivo
[12] = system: HepG2; experiment: Cytotoxicity against human HepG2 cells assessed as cell growth inhibition at 0.9 uM measured after 48 hrs by MTT assay relative to control; type: functional; design: scale not given: the % may be the effect or the level left
[13] = system: SMMC-7721; experiment: Cytotoxicity against human SMMC-7721 cells assessed as cell growth inhibition at 0.9 uM measured after 48 hrs by MTT assay relative to control; type: functional; design: scale not given: the % may be the effect or the level left
[14] = system: MCF7; experiment: Cytotoxicity against human MCF7 cells assessed as cell growth inhibition measured after 48 hrs by MTT assay; type: functional, cell-based; settings: MCF7, 48 h
[15] = Induction of nitric oxide production in Rabbit aortic endothelial cell at 0.1 ug/ml measured after 48 hrs by […] analysis; type: functional, Oryctolagus cuniculus; settings: dose 0.1 µg/ml
[16] = system: B16-F10; experiment: Induction of nitric oxide production in mouse B16-F10 cells at 1 ug/ml measured after 48 hrs by […] analysis; type: functional; settings: dose 1 µg/ml
[17] = system: Plasmodium falciparum; experiment: Antiplasmodial activity against chloroquine-resistant Plasmodium falciparum W2 assessed as cell growth inhibition incubated for 24 hrs by [3H]-hypoxanthine based scintillation counter analysis; type: functional, organism-based
[18] = system: Plasmodium falciparum; experiment: Antiplasmodial activity against chloroquine-sensitive Plasmodium falciparum 3D7 assessed as cell growth inhibition incubated for 24 hrs by [3H]-hypoxanthine based scintillation counter analysis; type: functional, organism-based
[19] = target: Acetylcholinesterase (Homo sapiens, UniProt P22303); experiment: Inhibition of human acetylcholinesterase
[20] = target: Cholinesterase (Homo sapiens, UniProt P06276); experiment: Inhibition of human BChE
[21] = Inhibition of human beta-secretase
[22] = Antioxidant activity assessed as free radical scavenging activity incubated for 30 mins by DPPH assay; type: functional
[23] = system: Proteus mirabilis; experiment: Antibacterial activity against Proteus mirabilis assessed as inhibition of bacterial growth incubated for 18 to 24 hrs; type: functional; settings: time 18-24 hrs
[24] = system: Staphylococcus epidermidis; experiment: Antibacterial activity against Staphylococcus epidermidis assessed as inhibition of bacterial growth incubated for 18 to 24 hrs; type: functional; settings: time 18-24 hrs
[25] = system: Lactiplantibacillus plantarum; experiment: Antibacterial activity against Lactobacillus plantarum assessed as inhibition of bacterial growth incubated for 18 to 24 hrs; type: functional; settings: time 18-24 hrs
[26] = system: Plasmodium falciparum; experiment: Antiplasmodial activity against Plasmodium falciparum 3D7 infected in human erythrocytes assessed as cell growth inhibition incubated for 72 hrs by parasite lactate dehydrogenase assay; type: functional, organism-based; settings: 3D7, 72 h
[27] = Displacement of [3H]-naloxone from opiate receptor in rat cortical brain membrane assessed as inhibition constant incubated for 30 mins by liquid scintillation counter analysis; type: cell membranes
[28] = system: P388; experiment: Cytotoxicity against mouse P388 cells assessed as effective dose; type: functional; settings: read-out: ED50 (the source's name)
[29] = target: Xanthine dehydrogenase/oxidase (Homo sapiens, UniProt P47989); experiment: Inhibition of xanthine oxidase (unknown origin) at 10 uM using xanthine as substrate
[30] = system: Staphylococcus aureus; experiment: Antibacterial activity against Staphylococcus aureus assessed as bacterial growth inhibition; type: functional
[31] = system: Plasmodium berghei; experiment: Antiplasmodial activity against Plasmodium berghei infected in ip dosed Swiss albino mouse assessed as growth inhibition at asexual erythrocytic stage; type: functional; design: scale not given: the % may be the effect or the level left
[32] = system: N2a; experiment: Neuroprotective activity against paraquat induced mouse Neuro2a cells assessed as reduction in cell viability at 1 uM pretreated for 1 hr followed by paraquat addition measured after 24 hrs by MTT method relative to control; type: functional; settings: time 25 hrs
[33] = system: KB; experiment: Cytotoxicity against human KB cells assessed as cell growth inhibition; type: functional, cell-based
[34] = system: B16; experiment: Cytotoxicity against mouse B16 cells assessed as cell growth inhibition measured after 72 hrs by MTT assay; type: functional, cell-based; settings: B16, 72 h
[35] = Cytotoxicity against multidrug resistant human VJ300 cells expressing P-gp assessed as cell growth inhibition measured after 72 hrs by MTT assay; type: functional, cell-based; settings: VJ-300, 72 h
[36] = Toxicity in mouse assessed as lethal dose; settings: in vivo
[37] = target: Prostaglandin G/H synthase 1 (Homo sapiens) (UniProt P23219); experiment: Inhibition of COX-1 (unknown origin) using arachidonic acid as substrate at 100 uM preincubated for 5 mins followed by substrate addition measured after 15 mins by absorbance based analysis relative to control; settings: time 20.0 min
[38] = target: Prostaglandin G/H synthase 2 (Homo sapiens) (UniProt P35354); experiment: Inhibition of COX-2 (unknown origin) using arachidonic acid as substrate at 100 uM preincubated for 5 mins followed by substrate addition measured after 15 mins by absorbance based analysis relative to control; settings: time 20.0 min
[39] = target: Polyunsaturated fatty acid 5-lipoxygenase (Homo sapiens) (UniProt P09917); experiment: Inhibition of 5-LOX (unknown origin) using arachidonic acid as substrate at 100 uM preincubated for 5 mins followed by substrate addition measured after 15 mins by absorbance based analysis relative to control; settings: time 20.0 min
[40] = system: Leishmania infantum; experiment: Antileishmanial activity against Leishmania infantum PB75 assessed as cell growth inhibition measured after 72 hrs by MTT assay; type: functional
[41] = system: Plasmodium falciparum; experiment: Antiplasmodial activity against chloroquine sensitive Plasmodium falciparum W2 assessed as cell growth inhibition; type: functional, organism-based
[42] = system: Plasmodium falciparum; experiment: Antiplasmodial activity against chloroquine sensitive Plasmodium falciparum D6 assessed as cell growth inhibition; type: functional, organism-based
[43] = system: Staphylococcus aureus; experiment: Antibacterial activity against Staphylococcus aureus assessed as zone of inhibition measured after 16 hrs by disk diffusion assay; type: functional
[44] = Toxicity in Artemia salina assessed as mortality measured after 24 hrs by microscopic analysis; settings: read-out: Activity

Sequence of Polyunsaturated fatty acid 5-lipoxygenase (Homo sapiens) (P09917 whole entry): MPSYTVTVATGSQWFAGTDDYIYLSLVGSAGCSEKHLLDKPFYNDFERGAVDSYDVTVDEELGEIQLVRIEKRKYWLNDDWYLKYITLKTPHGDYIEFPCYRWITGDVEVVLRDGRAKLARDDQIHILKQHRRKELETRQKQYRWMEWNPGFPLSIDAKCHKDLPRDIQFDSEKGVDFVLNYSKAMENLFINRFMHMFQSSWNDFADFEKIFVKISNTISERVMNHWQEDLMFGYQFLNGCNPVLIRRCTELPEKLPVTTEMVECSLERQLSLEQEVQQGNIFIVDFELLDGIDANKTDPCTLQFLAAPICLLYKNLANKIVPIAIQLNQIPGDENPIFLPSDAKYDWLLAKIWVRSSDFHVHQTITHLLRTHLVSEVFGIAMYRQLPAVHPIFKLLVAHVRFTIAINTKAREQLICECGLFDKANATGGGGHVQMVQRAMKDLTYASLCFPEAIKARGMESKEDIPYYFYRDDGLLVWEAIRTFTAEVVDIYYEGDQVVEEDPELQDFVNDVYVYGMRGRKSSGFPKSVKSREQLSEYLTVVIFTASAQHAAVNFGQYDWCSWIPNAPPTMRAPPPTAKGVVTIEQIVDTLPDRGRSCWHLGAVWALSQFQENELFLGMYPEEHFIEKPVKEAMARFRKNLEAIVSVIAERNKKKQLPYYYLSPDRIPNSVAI
Sequence of Acetylcholinesterase (P22303 whole entry): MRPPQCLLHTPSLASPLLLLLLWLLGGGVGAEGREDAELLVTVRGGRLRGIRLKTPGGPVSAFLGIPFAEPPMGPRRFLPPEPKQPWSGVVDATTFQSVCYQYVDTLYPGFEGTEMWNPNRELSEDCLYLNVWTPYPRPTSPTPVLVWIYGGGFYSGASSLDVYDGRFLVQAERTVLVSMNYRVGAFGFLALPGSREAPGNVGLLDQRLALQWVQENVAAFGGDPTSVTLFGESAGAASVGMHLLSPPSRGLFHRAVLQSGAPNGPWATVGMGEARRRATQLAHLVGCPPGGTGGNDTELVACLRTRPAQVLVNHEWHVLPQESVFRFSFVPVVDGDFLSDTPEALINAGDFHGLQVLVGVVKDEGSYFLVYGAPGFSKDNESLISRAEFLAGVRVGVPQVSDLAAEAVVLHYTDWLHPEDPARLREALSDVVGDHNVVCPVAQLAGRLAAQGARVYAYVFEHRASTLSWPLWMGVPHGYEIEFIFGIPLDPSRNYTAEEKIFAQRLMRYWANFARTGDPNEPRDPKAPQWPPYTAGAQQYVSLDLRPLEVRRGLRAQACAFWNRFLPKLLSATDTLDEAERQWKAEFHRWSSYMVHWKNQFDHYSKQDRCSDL
Sequence of Prostaglandin G/H synthase 1 (Homo sapiens) (P23219 whole entry): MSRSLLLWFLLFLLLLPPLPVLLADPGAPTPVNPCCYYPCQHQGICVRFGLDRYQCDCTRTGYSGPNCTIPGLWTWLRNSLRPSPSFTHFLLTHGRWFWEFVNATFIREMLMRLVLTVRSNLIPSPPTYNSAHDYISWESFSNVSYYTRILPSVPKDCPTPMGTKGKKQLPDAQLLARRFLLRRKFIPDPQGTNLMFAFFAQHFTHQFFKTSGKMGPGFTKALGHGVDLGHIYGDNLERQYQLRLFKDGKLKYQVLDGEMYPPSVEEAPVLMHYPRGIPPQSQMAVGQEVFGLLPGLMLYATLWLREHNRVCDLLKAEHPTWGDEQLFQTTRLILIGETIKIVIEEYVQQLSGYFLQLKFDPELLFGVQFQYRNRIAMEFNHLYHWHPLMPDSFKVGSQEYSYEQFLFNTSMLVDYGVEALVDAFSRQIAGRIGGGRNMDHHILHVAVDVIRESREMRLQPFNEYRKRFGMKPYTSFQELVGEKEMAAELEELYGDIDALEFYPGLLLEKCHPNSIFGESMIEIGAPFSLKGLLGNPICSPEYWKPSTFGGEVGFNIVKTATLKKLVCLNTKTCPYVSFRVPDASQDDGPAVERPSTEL
Sequence of Prostaglandin G/H synthase 2 (Homo sapiens) (P35354 whole entry): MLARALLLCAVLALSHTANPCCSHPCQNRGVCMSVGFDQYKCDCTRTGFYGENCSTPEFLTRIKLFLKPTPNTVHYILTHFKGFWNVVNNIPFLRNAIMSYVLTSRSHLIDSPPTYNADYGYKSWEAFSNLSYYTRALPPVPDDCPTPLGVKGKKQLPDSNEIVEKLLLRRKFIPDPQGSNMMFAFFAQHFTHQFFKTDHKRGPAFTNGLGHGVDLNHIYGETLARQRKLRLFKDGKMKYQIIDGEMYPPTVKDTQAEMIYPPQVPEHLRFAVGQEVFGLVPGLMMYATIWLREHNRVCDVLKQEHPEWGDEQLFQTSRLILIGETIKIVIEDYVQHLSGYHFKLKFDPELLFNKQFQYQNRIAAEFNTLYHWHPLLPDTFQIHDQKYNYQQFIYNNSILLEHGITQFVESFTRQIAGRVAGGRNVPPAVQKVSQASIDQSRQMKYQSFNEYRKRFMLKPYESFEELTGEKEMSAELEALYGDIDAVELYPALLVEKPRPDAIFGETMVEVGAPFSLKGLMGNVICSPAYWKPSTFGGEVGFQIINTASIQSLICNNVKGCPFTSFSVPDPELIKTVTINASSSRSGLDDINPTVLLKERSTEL
Sequence of Xanthine dehydrogenase/oxidase (P47989 whole entry): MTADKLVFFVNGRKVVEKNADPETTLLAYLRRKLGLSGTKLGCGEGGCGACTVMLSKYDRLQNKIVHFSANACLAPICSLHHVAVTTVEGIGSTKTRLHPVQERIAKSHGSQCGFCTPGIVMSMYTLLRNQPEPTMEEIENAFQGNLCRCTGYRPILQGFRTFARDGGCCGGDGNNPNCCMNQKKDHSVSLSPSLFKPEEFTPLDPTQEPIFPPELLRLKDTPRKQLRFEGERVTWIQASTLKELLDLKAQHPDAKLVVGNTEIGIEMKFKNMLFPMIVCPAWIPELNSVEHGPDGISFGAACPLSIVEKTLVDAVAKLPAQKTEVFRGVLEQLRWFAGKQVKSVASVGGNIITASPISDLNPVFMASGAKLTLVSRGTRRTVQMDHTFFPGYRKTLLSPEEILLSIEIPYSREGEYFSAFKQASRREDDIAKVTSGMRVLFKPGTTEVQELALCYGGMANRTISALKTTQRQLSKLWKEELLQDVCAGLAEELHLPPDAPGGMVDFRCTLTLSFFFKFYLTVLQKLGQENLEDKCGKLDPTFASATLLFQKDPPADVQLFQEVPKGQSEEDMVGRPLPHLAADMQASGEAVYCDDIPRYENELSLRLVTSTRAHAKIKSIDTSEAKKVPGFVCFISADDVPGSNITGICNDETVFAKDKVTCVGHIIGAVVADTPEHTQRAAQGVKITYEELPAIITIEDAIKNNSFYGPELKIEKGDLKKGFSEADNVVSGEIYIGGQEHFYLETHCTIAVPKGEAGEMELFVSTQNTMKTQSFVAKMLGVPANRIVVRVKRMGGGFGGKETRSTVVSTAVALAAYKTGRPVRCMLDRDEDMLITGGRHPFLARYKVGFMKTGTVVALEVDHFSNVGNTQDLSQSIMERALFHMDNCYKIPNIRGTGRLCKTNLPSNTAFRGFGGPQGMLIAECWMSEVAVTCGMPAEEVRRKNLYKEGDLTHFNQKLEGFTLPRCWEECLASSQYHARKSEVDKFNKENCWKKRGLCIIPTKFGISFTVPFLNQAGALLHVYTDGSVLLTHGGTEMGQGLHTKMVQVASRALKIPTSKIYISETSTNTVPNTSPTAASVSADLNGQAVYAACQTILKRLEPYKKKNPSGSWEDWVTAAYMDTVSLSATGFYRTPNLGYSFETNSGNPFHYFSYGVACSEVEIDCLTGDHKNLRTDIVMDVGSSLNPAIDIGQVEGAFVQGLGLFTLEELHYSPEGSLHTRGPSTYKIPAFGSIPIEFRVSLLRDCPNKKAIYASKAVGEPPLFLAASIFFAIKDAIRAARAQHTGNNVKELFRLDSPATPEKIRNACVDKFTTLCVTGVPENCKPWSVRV
Sequence of Cholinesterase (P06276 whole entry): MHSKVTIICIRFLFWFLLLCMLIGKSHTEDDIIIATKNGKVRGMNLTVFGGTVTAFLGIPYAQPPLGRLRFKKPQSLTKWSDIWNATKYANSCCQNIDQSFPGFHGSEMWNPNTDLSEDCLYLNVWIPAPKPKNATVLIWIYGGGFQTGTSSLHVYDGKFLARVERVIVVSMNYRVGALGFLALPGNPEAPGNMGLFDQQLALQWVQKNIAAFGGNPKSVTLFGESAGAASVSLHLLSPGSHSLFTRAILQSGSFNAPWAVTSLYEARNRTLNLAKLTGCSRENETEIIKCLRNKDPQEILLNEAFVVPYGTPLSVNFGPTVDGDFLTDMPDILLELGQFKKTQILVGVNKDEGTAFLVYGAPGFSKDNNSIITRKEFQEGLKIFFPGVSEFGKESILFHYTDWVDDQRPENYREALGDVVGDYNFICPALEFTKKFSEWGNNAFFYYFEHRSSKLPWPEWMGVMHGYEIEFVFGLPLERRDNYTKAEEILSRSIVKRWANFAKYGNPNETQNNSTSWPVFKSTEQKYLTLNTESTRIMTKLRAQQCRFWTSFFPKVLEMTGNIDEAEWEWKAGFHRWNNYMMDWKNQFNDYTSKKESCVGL
Sequence of Cyclin-dependent kinase 4 (P11802 whole entry): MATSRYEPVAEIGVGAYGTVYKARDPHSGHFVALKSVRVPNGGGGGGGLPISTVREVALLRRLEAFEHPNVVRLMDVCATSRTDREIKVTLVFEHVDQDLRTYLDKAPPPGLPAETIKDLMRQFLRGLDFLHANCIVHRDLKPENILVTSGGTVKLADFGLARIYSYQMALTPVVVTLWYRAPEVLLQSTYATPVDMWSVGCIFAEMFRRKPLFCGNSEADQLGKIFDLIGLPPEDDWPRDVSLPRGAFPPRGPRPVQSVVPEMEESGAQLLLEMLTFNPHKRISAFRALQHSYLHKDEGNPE

CO[C@H]1/C=C/O[C@@]2(C)Oc3c(C)c(O)c4c(O)c(c(/C=N/N5CCN(C)CC5)c(O)c4c3C2=O)NC(=O)/C(C)=C\C=C\[C@H](C)[C@H](O)[C@@H](C)[C@@H](O)[C@@H](C)[C@H](OC(C)=O)[C@@H]1C [RIFAMPIN]
MIC50 [1]: 0.5 µg/mL (≈ 0.608 µM)

C1=C\CCc2cc3c(o2)[C@@H]2N4CCCC/C=C\[C@H]4C[C@@]24CN(CCCC/1)CC[C@@H]34
IC50 [2]: 1.3 µg/mL (≈ 3.31 µM) | IC50 [3]: 25.2 µM | MIC [4]: 11 µg/mL (≈ 28 µM) | MIC [5]: 23 µg/mL (≈ 58.6 µM)

C/C=C1/CN2CC[C@@H]1[C@](CO)(C(=O)OC)c1[nH]c3ccccc3c1C2
MIC [6]: > 128 µg/mL

COC(=O)C1=C2Nc3c(O)cccc3[C@]23CC[N+]2(C)C[C@H](C(C)=O)[C@H]1C[C@H]32 (stereo partly drawn)
IC50 [7]: 9.2 µM | IC50 [8]: 9.2 µM | IC50 [9]: 9.2 µM | IC50 [10]: 9.2 µM

COc1cc2c(cc1OC)[C@@]13CCN4CC5=CCO[C@H]6CC(=O)N2[C@H]1[C@H]6[C@H]5C[C@H]43 [BRUCINE]
LD50 [11]: 12 mg/kg | Activity [12]: 78.3% | Activity [13]: 92.3% | IC50 [14]: 279 µM

C=C1c2[nH]c3ccc(OC)cc3c2C2[C@@H](CC)C1CCN2C (stereo partly drawn)
Activity [15]: 20.9 µM | Activity [16]: 41.1 µM | IC50 [17]: 0.75 µg/mL (≈ 2.53 µM) | IC50 [18]: 11.9 µg/mL (≈ 40.1 µM) | IC50 [19]: 279 µM | IC50 [20]: 24 µM | IC50 [21]: 180 µM

COc1cc([C@H]2Oc3ccc4[nH]cc5c4c3[C@H]2C(=O)NCC5)ccc1O
IC50 [22]: 3.2 10^-3mg/ml | MIC [23]: 1 µg/mL (≈ 2.85 µM) | MIC [24]: 10 µg/mL (≈ 28.5 µM) | MIC [25]: 1 µg/mL (≈ 2.85 µM)

CCC(=O)Oc1ccc([C@H]2Oc3ccc4[nH]cc5c4c3[C@@H]2C(=O)NCC5)cc1OC
IC50 [26]: 36.6 µM

C=C1c2[nH]c3ccccc3c2CN2CC[C@H]1/C(=C\C)C2 [APPARICINE]
Ki [27]: 2.65 µM | EC50 [28]: 3.8 µg/mL (≈ 14.4 µM) | IC50 [29]: 0.65 µM

O[C@]12C=C(c3nccc4c3[nH]c3ccccc34)[C@@H]3CCN(CCCC/C=C\CC1)C[C@@]31C[C@@H]3/C=C\CCCCN3[C@H]12 [MANZAMINE A]
MIC [30]: 6.3 µg/mL (≈ 11.5 µM) | Activity [31]: 90% | MIC50 [1]: 1.5 µg/mL (≈ 2.73 µM)

CC1(C)/C=C\N2C(=O)[C@]3(O)[C@@H](O)CCN3C(=O)[C@@H]2Cc2c1[nH]c1ccccc21
Activity [32]: 30.3%

CC1CC2C[C@]34C(=O)CCCN3CCC[C@@]2(O)C(=O)C14 (stereo partly drawn)
IC50 [33]: > 10 µg/mL | IC50 [2]: > 10 µg/mL

C=C1CC[C@@]23CC[C@@]45C(C2)[C@]4(CCN13)c1cc(OC)ccc1N5C(=O)OC
IC50 [34]: 7.2 µg/mL (≈ 19.6 µM) | IC50 [35]: 4.6 µg/mL (≈ 12.6 µM)

C[N@@+]12CC[C@]34c5ccccc5N5/C=C6\[C@@H]7N(/C=C(\[C@H]53)[C@H](C[C@@H]41)/C(=C\CO)C2)c1ccccc1[C@@]71CC[N@@+]2(C)C/C(=C/CO)[C@H]6C[C@@H]12
LD [36]: 0.8 mg/kg

CC[C@H]1[C@@H]2CCN3CC[C@@]4(C(=C2C(=O)OC)Nc2ccccc24)[C@@H]13 [TUBOTAIWINE]
Ki [27]: 1.65 µM | inhibition [37]: 60.8% | inhibition [38]: 90.4% | inhibition [39]: 69.5% | GI50 [40]: 5.9 µg/mL (≈ 18.2 µM) | MIC [6]: 100 µg/mL (≈ 308 µM)

COc1cc([C@H]2Oc3ccc4[nH]cc5c4c3[C@@H]2C(=O)NCC5)ccc1O
IC50 [41]: > 10 µg/mL | IC50 [42]: > 10 µg/mL | diameter of the inhibition zone (DIZ) [43]: 19 mm | mortality at 24 h [44]: 90%
